26 compounds from patent publication US20210198277A1, “AMINE-SUBSTITUTED ARYL OR HETEROARYL COMPOUNDS” (Epizyme, Inc., priority 2016, published 2021) can be followed below.

This assay concerns the target T1, EHMT1 (Homo sapiens, UniProt Q9H9B1).
T1 sequence (Q9H9B1 1-1298): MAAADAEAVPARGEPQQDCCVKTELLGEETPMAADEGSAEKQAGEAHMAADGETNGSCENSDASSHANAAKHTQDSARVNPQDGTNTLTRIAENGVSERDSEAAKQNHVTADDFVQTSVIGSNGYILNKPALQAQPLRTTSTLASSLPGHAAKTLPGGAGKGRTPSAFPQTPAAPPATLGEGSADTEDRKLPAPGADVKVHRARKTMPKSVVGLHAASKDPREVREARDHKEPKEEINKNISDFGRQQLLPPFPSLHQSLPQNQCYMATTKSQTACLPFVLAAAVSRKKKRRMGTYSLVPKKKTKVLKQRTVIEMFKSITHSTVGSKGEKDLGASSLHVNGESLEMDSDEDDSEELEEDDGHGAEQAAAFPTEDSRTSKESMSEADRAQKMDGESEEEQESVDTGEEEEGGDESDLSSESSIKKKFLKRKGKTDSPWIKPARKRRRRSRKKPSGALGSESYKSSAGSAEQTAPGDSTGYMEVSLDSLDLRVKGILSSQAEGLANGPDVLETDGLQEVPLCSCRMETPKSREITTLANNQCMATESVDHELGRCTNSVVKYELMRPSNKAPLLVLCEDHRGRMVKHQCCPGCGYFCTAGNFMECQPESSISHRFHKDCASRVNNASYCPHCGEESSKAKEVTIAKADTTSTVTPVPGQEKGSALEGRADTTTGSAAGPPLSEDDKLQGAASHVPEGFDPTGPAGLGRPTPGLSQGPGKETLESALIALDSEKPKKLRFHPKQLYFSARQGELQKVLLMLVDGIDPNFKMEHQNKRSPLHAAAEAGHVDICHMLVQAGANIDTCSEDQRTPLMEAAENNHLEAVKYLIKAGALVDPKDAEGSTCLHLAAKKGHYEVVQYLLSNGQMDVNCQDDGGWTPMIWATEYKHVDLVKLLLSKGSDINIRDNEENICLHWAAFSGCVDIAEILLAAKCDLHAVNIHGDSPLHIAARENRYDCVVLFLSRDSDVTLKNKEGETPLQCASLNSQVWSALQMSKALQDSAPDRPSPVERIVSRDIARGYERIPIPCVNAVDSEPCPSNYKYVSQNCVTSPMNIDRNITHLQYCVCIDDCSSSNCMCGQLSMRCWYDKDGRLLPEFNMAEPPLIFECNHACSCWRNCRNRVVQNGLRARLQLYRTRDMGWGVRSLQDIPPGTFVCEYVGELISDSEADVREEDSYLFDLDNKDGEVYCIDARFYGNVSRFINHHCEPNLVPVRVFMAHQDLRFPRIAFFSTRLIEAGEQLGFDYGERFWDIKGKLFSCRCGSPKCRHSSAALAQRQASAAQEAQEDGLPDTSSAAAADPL
Kind of assay: EHMT1 enzyme assay on peptide substrate (EHMT1 PEP). Type of assay: biochemical. To be noted: Table III; read-out: EHMT1 PEP (IC50 μM).

Some results are limits rather than exact numbers.

A word on the IC50: it is the concentration that gives 50% inhibition.

Consider `CNc1ccnc(Nc2cccc(C(C)OCCN3CCCC3)c2)n1` (centres unmarked) [Compound 279, N^4-methyl-N^2-(3-(1-(2-(pyrrolidin-1-yl)ethoxy)ethyl)phenyl) pyrimidine-2,4-diamine], for which the concentration for half-maximal inhibition (IC50) was greater than 10 µM. Consider `CNc1cc(C)nc(Nc2ccc(OC)c(O[C@H]3C[C@@H](CN(C)C)C3)c2)n1` [Compound 318, N^2-(3-((1s,3s)-3-((dimethylamino)methyl)cyclobutoxy)-4-methoxyphenyl)-N^4,6-dimethylpyrimidine-2,4-diamine], for which the IC50 is greater than 10 µM.

Take `CNc1cc(C)nc(Nc2ccc(OC)c(OCCCOC)c2)n1` [Compound 312, N^2-(4-methoxy-3-(3-methoxypropoxy)phenyl)-N^4,6-dimethylpyrimidine-2,4-diamine]: the IC50 was greater than 10 µM. `CNc1cc(C)nc(Nc2ccc(OC)c(OCC3CNC3)c2)n1` [Compound 437, N^2-(3-(azetidin-3-ylmethoxy)-4-methoxyphenyl)-N^4,6-dimethylpyrimidine-2,4-diamine]: the IC50 is less than 0.1 µM. As for `CNc1ccnc(Nc2ccc(OC)c(OCCCN3CC(OC)C3)c2)n1` [Compound 425, N^2-(4-methoxy-3-(3-(3-methoxyazetidin-1-yl)propoxy)phenyl)-N^4-methylpyrimidine-2,4-diamine], the IC50 lay within 0.1 to 1 µM. As to `CCN(CC)CCCOc1cc(Nc2nccc(NC)n2)ccc1OC` [Compound 280, N^2-(3-(3-(diethylamino)propoxy)-4-methoxyphenyl)-N^4-methylpyrimidine-2,4-diamine], the half-maximal inhibitory concentration (IC50) is 1 to 10 µM.

As to `COc1cnc(Nc2cnc3ccccn23)cc1OCCCN1CCCC1` [Compound 321, N-(5-methoxy-4-(3-(pyrrolidin-1-yl)propoxy)pyridin-2-yl)imidazo[1,2-a]pyridin-3-amine], the IC50 lay within 1 to 10 µM. Turning to `COc1cnc(Nc2nccc3[nH]ccc23)cc1OCCCN1CCCC1` [Compound 304], the IC50 is less than 0.1 µM. Consider `CNc1cc(N2CCCC2)nc(Nc2ccc(OC)c(OCCCN3CCCC3)c2)n1` [Compound 450, N^2-(4-methoxy-3-(3-(pyrrolidin-1-yl)propoxy)phenyl)-N^4-methyl-6-(pyrrolidin-1-yl)pyrimidine-2,4-diamine], for which the IC50 was greater than 10 µM.

In the case of `CCN1CC(COc2cc(Nc3nc(C)cc(NC)n3)ccc2OC)C1` [Compound 444], the IC50 is less than 0.1 µM. Regarding `CNc1ccnc(Nc2ccc(OC)c(OCCOC3CCCC3)c2)n1` [Compound 440, N^2-(3-(2-(cyclopentyloxy)ethoxy)-4-methoxyphenyl)-N^4-methylpyrimidine-2,4-diamine], the IC50 was greater than 10 µM. On to `CNc1ccnc(Nc2ccc(OC)c(OCCCN3CCC(O)C3)c2)n1` (centres unmarked) [Compound 286, 1-(3-(2-methoxy-5-((4-(methylamino)pyrimidin-2-yl)amino)phenoxy)propyl)pyrrolidin-3-ol], for which the IC50 lay in the range of 0.1 to 1 µM. Turning to `CNc1ccnc(Nc2cccc(OCC(F)(F)CN3CCCC3)c2)n1` [Compound 277, N^2-(3-(2,2-difluoro-3-(pyrrolidin-1-yl)propoxy)phenyl)-N^4-methylpyrimidine-2,4-diamine], the IC50 was greater than 10 µM. For `CNc1ccnc(Nc2ccc(OC)c(OCCCN(C)CC3CC3)c2)n1` [Compound 424, N^2-(3-(3-((cyclopropylmethyl)(methyl)amino)propoxy)-4-methoxyphenyl)-N^4-methylpyrimidine-2,4-diamine], the IC50 was 1 to 10 µM. Consider `CNc1cc(C)nc(Nc2ccc(OC)c(OC[C@H]3C[C@@H](N(C)C)C3)c2)n1` [Compound 316], for which the 50% inhibitory concentration (IC50) lay within 0.1 to 1 µM. For `CNc1ccnc(Nc2ccc(OC)c(OCc3noc(C4CC4)n3)c2)n1` [Compound 433, N^2-(3-((5-cyclopropyl-1,2,4-oxadiazol-3-yl)methoxy)-4-methoxyphenyl)-N^4-methylpyrimidine-2,4-diamine], the IC50 fell in the range of 1 to 10 µM. `CCOc1ccc(Nc2nc(C)cc(NC)n2)cc1OCCCN1CCCC1` [Compound 432, N^2-(4-ethoxy-3-(3-(pyrrolidin-1-yl)propoxy)phenyl)-N^4,6-dimethylpyrimidine-2,4-diamine]: the IC50 is greater than 10 µM. Next, `COc1ccc(Nc2nccc(NCC3CC(C)(C)NC(C)(C)C3)n2)cc1OCCCN1CCCC1` [Compound 278]: less than 0.1 µM; `CNc1ccnc(Nc2ccc(OC)c(OCCCN3CCC3C)c2)n1` (centres unmarked) [Compound 429, N^2-(4-methoxy-3-(3-(2-methylazetidin-1-yl)propoxy)phenyl)-N^4-methylpyrimidine-2,4-diamine]: 0.1 to 1 µM. In the case of `CNc1cc(C)nc(Nc2ccc(OC)c(OCCOC)c2)n1` [Compound 311, N^2-(4-methoxy-3-(2-methoxyethoxy)phenyl)-N^4,6-dimethylpyrimidine-2,4-diamine], the IC50 was greater than 10 µM. In the case of `CNc1ccnc(Nc2ccc(OC)c(OCCCN3CC4CC4C3)c2)n1` (centres unmarked) [Compound 298, N^2-(3-(3-(3-azabicyclo[3.1.0]hexan-3-yl)propoxy)-4-methoxyphenyl)-N^4-methylpyrimidine-2,4-diamine], the IC50 is less than 0.1 µM.

For `CNc1cc(C)nc(Nc2cc(OCCCN3CCCC3)c(OC)cn2)c1` [Compound 307, N^2-(5-methoxy-4-(3-(pyrrolidin-1-yl)propoxy)pyridin-2-yl)-N^4,6-dimethylpyridine-2,4-diamine], the IC50 was less than 0.1 µM. Regarding `COc1ccc(Nc2nc(C)cc(NCC3CCOCC3)n2)cc1OCC1CCN(C)C1` (centres unmarked) [Compound 451, N^2-(4-methoxy-3-((1-methylpyrrolidin-3-yl)methoxy)phenyl)-6-methyl-N^4-((tetrahydro-2H-pyran-4-yl)methyl)pyrimidine-2,4-diamine], the half-maximal inhibitory concentration (IC50) is less than 0.1 µM. As to `CNc1ccnc(Nc2ccc(OC)c(OCc3cc(C4CC4)on3)c2)n1` [Compound 426, N^2-(3-((5-cyclopropylisoxazol-3-yl)methoxy)-4-methoxyphenyl)-N^4-methylpyrimidine-2,4-diamine], the IC50 was greater than 10 µM. The value for `CNc1ccnc(Nc2ccc(OC)c(OCCCN3CCC(C)C3)c2)n1` (centres unmarked) [Compound 293, N^2-(4-methoxy-3-(3-(3-methylpyrrolidin-1-yl)propoxy)phenyl)-N^4-methylpyrimidine-2,4-diamine] was 0.1 to 1 µM; that for `CNc1ccnc(Nc2ccc(OC)c(OCc3cn(C4CC4)nn3)c2)n1` [Compound 434, N^2-(3-((1-cyclopropyl-1H-1,2,3-triazol-4-yl)methoxy)-4-methoxyphenyl)-N^4-methylpyrimidine-2,4-diamine] was greater than 10 µM.
